From ChEMBL document CHEMBL1143641, “Structure-based design of 7-carbamate analogs of geldanamycin” (Bioorg Med Chem Lett, 2005) come the findings set out here.

The subject of one assay is SK-BR-3. The assay is described as follows: Cytotoxicity against SKBr3 cells. The assay is classed as functional, cell-based. The following applies: Homo sapiens.
Assay [1] deals with Heat shock protein HSP 90-alpha (Homo sapiens, UniProt P07900). Put plainly: Binding affinity for human heat shock protein 90 in scintillation proximity assay. Background: SPA uses beads or plates that emit light when radiolabelled molecules are held near them.

Compound `CO[C@H]1C[C@H](C)CC2=C(NCCN(C)C)C(=O)C=C(NC(=O)/C(C)=C/C=C3/NC(=O)O[C@@H](/C(C)=C/[C@H](C)[C@H]1O)[C@H]3OC)C2=O` showed a 50% inhibitory concentration (IC50) in the assay with SK-BR-3 of 4500 nM. In addition, the Kd in assay [1] was > 100000 nM.
In the assay on SK-BR-3, `CO[C@H]1/C=C\C=C(/C)C(=O)NC2=CC(=O)C(NCCN(C)C)=C(C[C@@H](C)C[C@H](OC)[C@H](O)[C@@H](C)/C=C(\C)[C@@H]1OC(=O)NCC(N)=O)C2=O` registered an IC50 of 1400 nM. For the same compound, the dissociation constant Kd in assay [1] was > 100000 nM.
On to `CO[C@H]1/C=C\C=C(/C)C(=O)NC2=CC(=O)C(N3CCC3)=C(C[C@@H](C)C[C@H](OC)[C@H](O)[C@@H](C)/C=C(\C)[C@@H]1OC(=O)NN)C2=O`, for which half-maximal inhibition in the assay with SK-BR-3 (IC50) was put at 530 nM. Further, the dissociation constant Kd in assay [1] was > 100000 nM.
The corresponding values for `CNC(=O)O[C@H]1/C(C)=C/[C@H](C)[C@@H](O)[C@@H](OC)C[C@H](C)CC2=C(NCCN(C)C)C(=O)C=C(NC(=O)/C(C)=C/C=C\[C@@H]1OC)C2=O` are 420 nM and > 100000 nM.
The corresponding values for `CONC(=O)O[C@H]1/C(C)=C/[C@H](C)[C@@H](O)[C@@H](OC)C[C@H](C)CC2=C(NCCN(C)C)C(=O)C=C(NC(=O)/C(C)=C/C=C\[C@@H]1OC)C2=O` are 490 nM and > 100000 nM.
Compound `CO[C@H]1/C=C\C=C(/C)C(=O)NC2=CC(=O)C(NCCN(C)C)=C(C[C@@H](C)C[C@H](OC)[C@H](O)[C@@H](C)/C=C(\C)[C@@H]1OC(=O)NCCN(C)C)C2=O` had a 50% inhibitory concentration (IC50) in the assay with SK-BR-3 of 460 nM. Moreover, in assay [1], the Kd is > 100000 nM.
For `CO[C@H]1/C=C\C=C(/C)C(=O)NC2=CC(=O)C(N)=C(C[C@@H](C)C[C@H](OC)[C@H](O)[C@@H](C)/C=C(\C)[C@@H]1OC(N)=O)C2=O`, binding in assay [1] was put at a Kd of 100 nM.
In turn, `CO[C@H]1/C=C\C=C(/C)C(=O)NC2=CC(=O)C(NCCN(C)C)=C(C[C@@H](C)C[C@H](OC)[C@H](O)[C@@H](C)/C=C(\C)[C@@H]1OC(=O)N(C)N)C2=O` registered a 50% inhibitory concentration (IC50) in the assay on SK-BR-3 of 2500 nM. In assay [1], the Kd is > 100000 nM.
On the same counts, the results for `CO[C@H]1/C=C\C=C(/C)C(=O)NC2=CC(=O)C(NCCN(C)C)=C(C[C@@H](C)C[C@H](OC)[C@H](O)[C@@H](C)/C=C(\C)[C@@H]1OC(=O)NO)C2=O` are 220 nM and 18000 nM.
The corresponding values for `CO[C@H]1/C=C\C=C(/C)C(=O)NC2=CC(=O)C(N3CCC3)=C(C[C@@H](C)C[C@H](OC)[C@H](O)[C@@H](C)/C=C(\C)[C@@H]1OC(=O)NO)C2=O` are 640 nM and > 100000 nM.
On the same counts, the results for `CO[C@H]1/C=C\C=C(/C)C(=O)NC2=CC(=O)C(NCCF)=C(C[C@@H](C)C[C@H](OC)[C@H](O)[C@@H](C)/C=C(\C)[C@@H]1OC(=O)NN)C2=O` are 2100 nM and > 100000 nM.
As for `CO[C@H]1/C=C\C=C(/C)C(=O)NC2=CC(=O)C(NCCF)=C(C[C@@H](C)C[C@H](OC)[C@H](O)[C@@H](C)/C=C(\C)[C@@H]1OC(=O)NO)C2=O`, the half-inhibitory concentration (IC50) in the assay with SK-BR-3 came to 1500 nM. The equilibrium dissociation constant (Kd) in assay [1] is > 100000 nM.
`CO[C@H]1/C=C\C=C(/C)C(=O)NC2=CC(=O)C(N)=C(C[C@@H](C)C[C@H](OC)[C@H](O)[C@@H](C)/C=C(\C)[C@@H]1OC(=O)c1ccc[nH]1)C2=O`: the IC50 in the assay on SK-BR-3 is 1900 nM. In assay [1], the Kd is > 100000 nM.
Regarding `CO[C@H]1/C=C\C=C(/C)C(=O)NC2=CC(=O)C(NCCN(C)C)=C(C[C@@H](C)C[C@H](OC)[C@H](O)[C@@H](C)/C=C(\C)[C@@H]1OC(=O)c1c[nH]cn1)C2=O`, inhibition in the assay with SK-BR-3 was half-maximal at 1200 nM (IC50). The dissociation constant Kd in assay [1] was > 100000 nM.
`CO[C@H]1/C=C\C=C(/C)C(=O)NC2=CC(=O)C(NCCN(C)C)=C(C[C@@H](C)C[C@H](OC)[C@H](O)[C@@H](C)/C=C(\C)[C@@H]1OC(=O)NN)C2=O` gave a half-inhibitory concentration (IC50) with SK-BR-3 of 140 nM. In addition, the Kd in assay [1] is > 100000 nM.
In the assay on SK-BR-3, `CO[C@H]1/C=C\C=C(/C)C(=O)NC2=CC(=O)C(NCCN(C)C)=C(C[C@@H](C)C[C@H](OC)[C@H](O)[C@@H](C)/C=C(\C)[C@@H]1OC(=O)NCCO)C2=O` returned a 50% inhibitory concentration (IC50) of 390 nM. In addition, in assay [1], the Kd is > 100000 nM.
The corresponding values for `CO[C@H]1/C=C\C=C(/C)C(=O)NC2=CC(=O)C(NCCN(C)C)=C(C[C@@H](C)C[C@H](OC)[C@H](O)[C@@H](C)/C=C(\C)[C@@H]1OC(=O)c1ccc[nH]1)C2=O` are 410 nM and > 100000 nM.
Compound `CO[C@H]1/C=C\C=C(/C)C(=O)NC2=CC(=O)C(NCCF)=C(C[C@@H](C)C[C@H](OC)[C@H](O)[C@@H](C)/C=C(\C)[C@@H]1OC(N)=O)C2=O` gave a Kd in assay [1] of 800 nM.
Still for that read-out and setting: the value for `CO[C@H]1/C=C\C=C(/C)C(=O)NC2=CC(=O)C(N3CCC3)=C(C[C@@H](C)C[C@H](OC)[C@H](O)[C@@H](C)/C=C(\C)[C@@H]1OC(N)=O)C2=O` was 1400 nM.

In general, IC50 refers to the concentration that inhibits the measured activity by half. Lower therefore signals higher potency. The term Kd denotes the constant that tells how readily two partners part at equilibrium. Lower therefore signals a tighter complex.
